According to US20080262228A1, “Metabolites of 5-fluoro-8- quinoline and methods of preparation and uses thereof” (Wyeth, priority 2006, published 2008):
Values joined by “and” are separate entries in the source; they are usually repeats but may differ in a detail not shown here. Equal entries are not always repeated. Structures can show the parent of a compound that is named as a salt. Marks after values point to notes of the source that are not given here.

Experiment: In vivo metabolism of [14C]COMPOUND I in Sprague-Dawley rats, single oral 5 mg/kg dose
Design: species or system rat
Details: 5 mg/kg oral
[1] = female rats, 1 hr, individual rats, 5 mg/kg
[2] = female rats, 1 hr, mean ± SD, 5 mg/kg
[3] = female rats, 3 hr, individual rats, 5 mg/kg
[4] = female rats, 3 hr, mean ± SD, 5 mg/kg
[5] = male rats, 1 hr, individual rats, 5 mg/kg
[6] = male rats, 1 hr, mean ± SD, 5 mg/kg
[7] = male rats, 3 hr, individual rats, 5 mg/kg
[8] = male rats, 3 hr, mean ± SD, 5 mg/kg
[9] = male rats, 6 hr, individual rats, 5 mg/kg
[10] = male rats, 6 hr, mean ± SD, 5 mg/kg
[11] = male rats, 24 hr, individual rats, 5 mg/kg
[12] = male rats, 24 hr, mean ± SD, 5 mg/kg

## COc1cc(N2CCN(C3CCN(c4ccc(F)c5cccnc45)CC3)CC2)c2ncccc2c1 [[^14C]COMPOUND I, [piperazine-^14C(U)]-5-fluoro-8-(4-(4-(6-methoxyquinolin-8-yl)piperazin-1-yl)piperidin-1-yl)quinoline trisuccinate]
[1]
  Concentration of Total Radioactivity in Plasma: 1274 ng equivalents/mL and 854 ng equivalents/mL and 383 ng equivalents/mL
  Concentration of Total Radioactivity in Whole Blood: 815 ng equivalents/mL and 549 ng equivalents/mL and 536 ng equivalents/mL
Female rats, 1 hr, individual, 5 mg/kg
  Brain Radioactivity Concentrations: 149 ng equivalents/g and 121 ng equivalents/g and 128 ng equivalents/g
Female rats, 1 hr, mean ± SD
  Concentration of Total Radioactivity in Whole Blood: 633 ± 157 ng equivalents/mL
[2]
  Brain Radioactivity Concentrations: 133 ng equivalents/g and 133 ± 15 ng equivalents/g
  Concentration of Total Radioactivity in Plasma: 837 ng equivalents/mL and 837 ± 446 ng equivalents/mL
[3]
  Concentration of Total Radioactivity in Plasma: 504 ng equivalents/mL and 298 ng equivalents/mL and 436 ng equivalents/mL
  Concentration of Total Radioactivity in Whole Blood: 326 ng equivalents/mL and 206 ng equivalents/mL and 287 ng equivalents/mL
Female rats, 3 hr, individual, 5 mg/kg
  Brain Radioactivity Concentrations: 54 ng equivalents/g and 30 ng equivalents/g and 61 ng equivalents/g
Female rats, 3 hr, mean ± SD
  Concentration of Total Radioactivity in Whole Blood: 273 ± 61.2 ng equivalents/mL
[4]
  Brain Radioactivity Concentrations: 49 ng equivalents/g and 49 ± 16 ng equivalents/g
  Concentration of Total Radioactivity in Plasma: 412 ng equivalents/mL and 412 ± 105 ng equivalents/mL
Male rats, 0-24 hr urine
  dose excreted in urine: 3.6%
[5]
  Concentration of Total Radioactivity in Plasma: 366 ng equivalents/mL and 295 ng equivalents/mL and 887 ng equivalents/mL
  Concentration of Total Radioactivity in Whole Blood: 228 ng equivalents/mL and 169 ng equivalents/mL and 251 ng equivalents/mL
Male rats, 1 hr, individual, 5 mg/kg
  Brain Radioactivity Concentrations: 48 ng equivalents/g and 42 ng equivalents/g and 63 ng equivalents/g
Male rats, 1 hr, mean ± SD
  Concentration of Total Radioactivity in Whole Blood: 216 ± 42.3^a ng equivalents/mL
[6]
  Brain Radioactivity Concentrations: 51 ng equivalents/g and 51 ± 11^c ng equivalents/g
  Concentration of Total Radioactivity in Plasma: 516 ng equivalents/mL and 516 ± 323 ng equivalents/mL
[7]
  Concentration of Total Radioactivity in Plasma: 172 ng equivalents/mL and 256 ng equivalents/mL and 144 ng equivalents/mL
  Concentration of Total Radioactivity in Whole Blood: 115 ng equivalents/mL and 166 ng equivalents/mL and 98.6 ng equivalents/mL
Male rats, 3 hr, individual, 5 mg/kg
  Brain Radioactivity Concentrations: 22 ng equivalents/g and 31 ng equivalents/g and 23 ng equivalents/g
Male rats, 3 hr, mean ± SD
  Concentration of Total Radioactivity in Whole Blood: 127 ± 35.1^a ng equivalents/mL
[8]
  Brain Radioactivity Concentrations: 25 ng equivalents/g and 25 ± 4.9 ng equivalents/g
  Concentration of Total Radioactivity in Plasma: 191 ng equivalents/mL and 191 ± 58.3^a ng equivalents/mL
[9]
  Concentration of Total Radioactivity in Plasma: 112 ng equivalents/mL and 114 ng equivalents/mL and 163 ng equivalents/mL
  Concentration of Total Radioactivity in Whole Blood: 77.2 ng equivalents/mL and 75.5 ng equivalents/mL and 118 ng equivalents/mL
Male rats, 6 hr, individual, 5 mg/kg
  Brain Radioactivity Concentrations: 15 ng equivalents/g and 13 ng equivalents/g and 19 ng equivalents/g
Male rats, 6 hr, mean ± SD
  Concentration of Total Radioactivity in Whole Blood: 90.2 ± 24.1 ng equivalents/mL
[10]
  Brain Radioactivity Concentrations: 16 ng equivalents/g and 16 ± 3.2 ng equivalents/g
  Concentration of Total Radioactivity in Plasma: 130 ng equivalents/mL and 130 ± 28.9 ng equivalents/mL
[11]
  Concentration of Total Radioactivity in Plasma: 23.3 ng equivalents/mL and 24.2 ng equivalents/mL and 26.7 ng equivalents/mL
  Concentration of Total Radioactivity in Whole Blood: 22.8 ng equivalents/mL and 26.2 ng equivalents/mL and 28.0 ng equivalents/mL
Male rats, 24 hr, individual, 5 mg/kg
  Brain Radioactivity Concentrations: 7.1 ng equivalents/g and 5.3 ng equivalents/g and 6.1 ng equivalents/g
Male rats, 24 hr, mean ± SD
  Concentration of Total Radioactivity in Whole Blood: 25.7 ± 2.64 ng equivalents/mL
[12]
  Brain Radioactivity Concentrations: 6.2 ng equivalents/g and 6.2 ± 0.9 ng equivalents/g
  Concentration of Total Radioactivity in Plasma: 24.7 ng equivalents/mL and 24.7 ± 1.76 ng equivalents/mL
Male rats, first 24 hr, average
  administered radioactivity recovered in feces: 81.9%

## Oc1cc(N2CCN(C3CCN(c4ccc(F)c5cccnc45)CC3)CC2)c2ncccc2c1 [Metabolite M21, 8-{4-[1-(5-fluoroquinolin-8-yl)piperidin-4-yl]piperazin-1-yl}quinolin-6-ol trihydrochloride]
Female rats, between 1 and 3 hr post-dose
  percent of total brain radioactivity: 11.3-13.6%
Male rats, between 1 and 6 hr post-dose
  percent of total brain radioactivity: 9.0-9.4%
Male rats, pooled 0-24 hr feces
  percent of total radioactivity in the fecal extract: 15.1%
rats, P, plasma, F, feces, B, brain
  Source: B, F
